Source: patent publication US20110071177A1, “FUNGICIDAL ACTIVE SUBSTANCE COMBINATION” (Bayer CropScience AG, priority 2005, published 2011)

Tested on: Sphaerotheca fuliginea
Test: Sphaerotheca test (cucumber) / protective
Assay type: in vivo, Sphaerotheca fuliginea on cucumber
Settings: application rate 4 ppm, evaluation 7 days after inoculation
Description: Solvents: 24.5 parts by weight of acetone • 24.5 parts by weight of dimethylacetamide Emulsifier: 1 part by weight of alkylaryl polyglycol ether To produce a suitable preparation of active compound, 1 part by weight of active compound or active compound combination is mixed with the stated amounts of solvents and emulsifier, and the concentrate is diluted with water to the desired concentration, or a commercial formulation of active compound or active compound combination with water is diluted with water to the desired concentration. To test for protective activity, young plants are sprayed with the active compound preparation at the stated application rate. After the spray coating has dried on, the plants are inoculated with an aqueous spore suspension of Sphaerotheca fuliginea. The plants are then placed in a greenhouse at about 23° C. and a relative atmospheric humidity of about 70%. Evaluation is carried out 7 days after inoculation. Here, 0% means an efficacy which corresponds to that of the control, whereas an efficacy of 100% means that no infestation is observed.

Structure (SMILES): CO/N=C(/C(=O)OC)c1ccccc1CO/N=C(\C)c1cccc(C(F)(F)F)c1 [2-[α-{[(α-methyl-3-trifluoromethylbenzyl)imino]oxy}-o-tolyl]glyoxylic acid methyl ester O-methyloxime]
- % efficacy: 10%
